{"source": "patent US20240215582A1", "about": "“METHODS OF CONTROLLING PLANT PATHOGENS” (Valent BioSciences LLC, priority 2022, published 2024)", "key": {"[1]": {"tested_on": "Phytophthora infestans", "type": "in vivo"}, "[2]": {"tested_on": "Phakopsora pachyrhizi", "assay": "Host plant efficacy assay (soybean)", "type": "in vivo"}, "[3]": {"tested_on": "Zymoseptoria tritici", "assay": "In vitro growth on cervinomycin-amended growth media", "type": "cell-based"}}, "note": "Read-outs that look alike come from different tables or passages of the source."}
{"compound": "COc1cc2oc3c(c(=O)c2cc1OC)C(=O)c1c(ccc2cc4c(c(O)c12)C(=O)N1CCOC1(C)C4)C3=O", "note": "(centres unmarked) [Cervinomycin A2, cervinomycin A2]", "values": [{"measurement": "% control Phytophthora infestans Tomato 1DBI", "setting": "[1]; 11.3 ppm", "value": "0 (0 (about 0%))"}, {"measurement": "% control Phytophthora infestans Tomato 1DBI", "setting": "[1]; 45 ppm", "value": "0 (0 (about 0%))"}, {"measurement": "% control Phytophthora infestans Tomato 1DBI", "setting": "[1]; 180 ppm", "value": "3 (3 (about 70%))"}, {"measurement": "% control Phakopsora pachyrhizi Soybean 3DAI", "setting": "[2]; 11.3 ppm", "value": "0 (0 (about 0%))"}, {"measurement": "% control Phakopsora pachyrhizi Soybean 4DBI", "setting": "[2]; 11.3 ppm", "value": "0 (0 (about 0%))"}, {"measurement": "% control Phakopsora pachyrhizi Soybean 3DAI", "setting": "[2]; 45 ppm", "value": "0 (0 (about 0%))"}, {"measurement": "% control Phakopsora pachyrhizi Soybean 4DBI", "setting": "[2]; 45 ppm", "value": "0 (0 (about 0%))"}, {"measurement": "% control Phakopsora pachyrhizi Soybean 3DAI", "setting": "[2]; 180 ppm", "value": "0 (0 (about 0%))"}, {"measurement": "% control Phakopsora pachyrhizi Soybean 4DBI", "setting": "[2]; 180 ppm", "value": "2 (2 (about 50%))"}, {"measurement": "% Control Zymoseptoria tritici", "setting": "[3]; 0.004 ppm in growth media", "value": 1, "unit": "%"}, {"measurement": "% Control Zymoseptoria tritici", "setting": "[3]; 0.016 ppm in growth media", "value": 2, "unit": "%"}, {"measurement": "% Control Zymoseptoria tritici", "setting": "[3]; 0.063 ppm in growth media", "value": 6, "unit": "%"}, {"measurement": "% Control Zymoseptoria tritici", "setting": "[3]; 0.25 ppm in growth media", "value": 62, "unit": "%"}, {"measurement": "% Control Zymoseptoria tritici", "setting": "[3]; 1 ppm in growth media", "value": 100, "unit": "%"}]}
